Test results taken from patent US4665075A, “Derivatives of hydroxy- or amino-substituted (piperidinylalkyl)quinazolines” (Janssen Pharmaceutica N.V., priority 1985, dated 1987).

What was measured:
[1] = test system: serotonin-induced contraction of the caudal artery of the rat; assay: Test 1: Antagonistic activity on the effect of serotonin on the caudal artery of the rat; details: rat caudal artery strips; serotonin 40 ng/ml; measured 5 minutes after adding the drug
Protocol: Test 1: Antagonistic activity on the effect of serotonin on the caudal artery of the rat
Caudal arteries from fasted male rats (210-235 g) were used in the test. Two helical strips having a length of 5-6 cm and a width of 2 mm were obtained from each artery and mounted vertically in a 100 ml organ bath containing an oxygenated Krebs-Henseleit solution. Submaximal contractions of the arterial strips were produced by adding single doses of serotonin (40 ng/ml) to the organ bath for 2 minutes with each time an interval of 10 minutes. The amplitude of the contraction is measured before and 5 minutes after adding the drug. After washing out, the agonist was added again three times in order to see whether the contraction is restored and normalized.
In this connection the ED50 -values are the minimal concentrations of the concerned drugs which reduce the amplitude of the contraction to at least 50% of its normal value.

[2] = test system: gastric lesions induced by compound 48/80; assay: Test 2: Effects in gastric lesion tests; lesions induced by compound 48/80; type: in vivo, rat (male, Wistar inbred strain); details: oral, 2 hours before compound 48/80 1 mg/kg i.v.; stomachs inspected 4 hours later
Protocol: Test 2: Effects in gastric lesion tests
The shock, followed by dead, can be avoided if the rats are pretreated with a classical H1 antagonist.
Male rats of a Wistar inbred strain, weighing 220-250 g, were starved overnight, water being available ad libitum. The test compounds were administered orally as a solution or as a suspension in aqueous medium. A control rat and a "blank" rat receive the test compound. One hour later 5-[4-(diphenylmethyl)-1-piperazinyl-methyl]-1-methyl-1H-benzimidazole-2-methanol is adhministered subcutaneously to all rats at the dose of 2.5 mg/kg. […] Five minutes after the injection the intensity of purple-blue coloration (cyanosis) of the extremities was scored as 0 (absent), + (moderate) or ++ (intense). Four hours after the intravenous injection of compound 48/80 the rats were decapitated and the stomachs were removed. Subsequently the stomachs were inspected for distension and contents (blood, fluid, food) and thoroughly rinsed. The macroscopic lesions were scored from 0 to +++, 0 corrsponding to complete absence of visible lesions and the highest score corresponding to reddish rough patches covering more than half the glandular area.
The compounds listed in table 1 are not given for the purpose of limiting the invention thereto but only to exemplify the useful pharmacological activities of all the compounds within the scope of formula (I).

[3] = test system: cyanosis, gastric lesions and shock induced by compound 48/80; details: rats injected with compound 48/80; cited from earlier work

SMILES	Caudal artery ED50 (minimal concentration which reduces the amplitude of the serotonin-induced contraction to at least 50% of its normal value) [1] [ng/mL]	Gastric lesion ED50 (dose at which distension of the stomach and lesions in the glandular area are completely absent in 50% of the test rats) [2] [mg/kg]	prevention of the abnormal gastric distension [3]	prevention of the cyanosis of ears and extremities [3]	prevention of the lesions in the glandular area of the stomach [3]
Nc1ccc2c(=O)n(CCCCN3CCC(C(=O)c4ccc(F)cc4)CC3)c(=O)[nH]c2c1 [Compound 8, 7-amino-3-[4-[4-(4-fluorobenzoyl)-1-piperidinyl]butyl]-2,4(1H,3H)-quinazolinedione]	0.32	0.04			
Nc1ccc2c(=O)n(CCN3CCC(C(=O)c4ccc(F)cc4)CC3)c(=S)[nH]c2c1 [Compound 9, 7-amino-3-[2-[4-(4-fluorobenzoyl)-1-piperidinyl]ethyl]-2,3-dihydro-2-thioxo-4(1H)-quinazolinone]	0.18	0.005			
Nc1ccc2c(=O)n(CCCCN3CCC(C(=O)c4ccc(F)cc4)CC3)c(=S)[nH]c2c1 [Compound 11, 7-amino-3-[4-[4-(4-fluorobenzoyl)-1-piperidinyl]butyl]-2,3-dihydro-2-thioxo-4(1H)-quinazolinone]	< 0.63	0.63			
Nc1ccc2c(=O)n(CCN3CCC(C(=O)c4ccc(F)cc4)CC3)c(=O)[nH]c2c1 [Compound 12, 7-amino-3-[2-[4-(4-fluorobenzoyl)-1-piperidinyl]ethyl]-2,4(1H,3H)-quinazolinedione]	< 0.63	0.04			
CC(=O)Nc1ccc2c(=O)n(CCCCN3CCC(C(=O)c4ccc(F)cc4)CC3)c(=O)[nH]c2c1 [Compound 18, N-[3-[4-[4-(4-fluorobenzoyl)-1-piperidinyl]butyl]-1,2,3,4-tetrahydro-2,4-dioxo-7-quinazolinyl]-acetamide]	0.32	0.08			
CC(=O)Nc1ccc2c(=O)n(CCN3CCC(C(=O)c4ccc(F)cc4)CC3)c(=S)[nH]c2c1 [Compound 19, N-[3-[2-[4-(4-fluorobenzoyl)-1-piperidinyl]ethyl]-1,2,3,4-tetrahydro-4-oxo-2-thioxo-7-quinazolinyl]acetamide]	0.32	0.01			
CC(=O)Nc1ccc2c(=O)n(CCN3CCC(C(=O)c4ccc(F)cc4)CC3)c(=O)[nH]c2c1 [Compound 22]	0.37	0.04			
CN(C)CCCSc1ccccc1NC(=O)/C=C/c1ccccc1 [cinanserin]			prevent completely	prevent completely	prevent completely
CN1CCC(=C2c3ccccc3C=Cc3ccccc32)CC1 [cyproheptadine]			prevent completely	prevent completely	prevent completely
CN1C[C@H](CNC(=O)OCc2ccccc2)C[C@@H]2c3cccc4c3c(cn4C)C[C@H]21 [metergoline]			prevent completely	prevent completely	prevent completely
CC[C@@H](CO)NC(=O)[C@@H]1C=C2c3cccc4c3c(cn4C)C[C@H]2N(C)C1 [methysergide]			prevent completely	prevent completely	prevent completely
CN1CCN2c3ccccc3Cc3ccccc3C2C1 (centres unmarked) [mianserin]			prevent completely	prevent completely	prevent completely
NC(=O)C1(N2CCCCC2)CCN(CCCC(=O)c2ccc(F)cc2)CC1 [pipamperone]			prevent completely	prevent completely	prevent completely
CN1CCC(=C2c3ccccc3CCc3sccc32)CC1 [pizotifen]			prevent completely	prevent completely	prevent completely
O=C(CCCN1CCC2(CC1)C(=O)NCN2c1ccccc1)c1ccc(F)cc1 [spiperone]			prevent completely	prevent completely	prevent completely
